MLD, minimal effective dose and inhibition in vivo data for eleven molecules are collected here from patent publication EP0085870A1, “Dibenz(b,e)oxepin derivatives and pharmaceutical compositions containing them” (KYOWA HAKKO KOGYO CO., LTD, priority 1982, dated 1983).

One series relates to male dd-strain mice. Put plainly: Acute toxicity test. It counts as in vivo. Particulars: mortality for 7 days after administration. The method, then:
Groups of male dd-strain mice (each croup consisting of five mice) weighing 20 + 1 g are used. Compound I are administered orally (po : 0.3 mg/g) or intraperitoneally (ip : 0.1 mg/g). The MLD lethal dose) is calculated from the mortality for 7 days after the administration to obtain the results given in Table 1.

Another series relates to PCA response. Put plainly: Antiasthmatic activity test: passive cutaneous anaphylaxis response (PCA response). It counts as in vivo, Wistar strain male rats. Particulars: Rattus norvegicus, rats; for minimal effective dose: po, minimum effective dose, depressing ratio of 50% or more counts as positive, read-out: MED; for inhibition in vivo at 2.5 mg/kg: Dose 2.5 mg/Kg PO; for inhibition in vivo at 5 mg/kg: Dose 5 mg/Kg PO; for inhibition in vivo at 10 mg/kg: Dose 10 mg/Kg PO; for inhibition in vivo at 25 mg/kg: Dose 25 mg/Kg PO; for inhibition in vivo at 50 mg/kg: Dose 50 mg/Kg PO; for inhibition in vivo at 100 mg/kg: Dose 100 mg/Kg PO. The method, then:
Antiasthmatic activity is evaluated according to passive cutaneous anaphylaxis response (PCA response). Antiserum is collected from Wistar strain male rats weighing 200 to 250 g. PCA response is evaluated using Wistar strain male rats weighing 100 to 120 g.
One mg of egg albumin is dissolved in 0.5 ml of pertussisdiphtheria mixed vaccine, and the resulting solution is mixed with 0.5 ml of incomplete adjuvant. The resulting emulsion is used as antigen and administered to rats subcutaneously through the sole. On the 12th day after the administration, heads of the rats are cut to collect blood. Thus, antiserum is prepared.
Upon evaluating antiasthmatic activity, concentration of the antiserum is adjusted so that diameter of blue-dyed portion is about 8 to about 10 mm.
Six rats are used per group. 0.05 ml of the antiserum is intracutaneously administered to each of the previously back-shaved rats to sensitize. After 17 hours, compound I or the solutions thereof (physiological salt solution or CMC solution) are respectively administered and, after 60 minutes, an antigen mixture (1% Evans' Blue physiological salt solution containing 0.2% egg albumin) is injected intravenously in an amount of 0.5 ml/100 g to induce PCA. response. After 30 minutes, rats are choked to death followed by cutting out skin to measure the diameter of blue-dyed portion. The results are evaluated by awarding a score according to the diameter of blue―dved portion. Furthermore, ratios of the diameters to that of solvent (psysiological salt solution or CMC) administered group are snowing a depressing ratio of 50% or more calculated according to the following formula are concluded to show positive antiasthmatic activity. Also, the minimum effective dose (MED) is determined from the results with respective doses to compare the strength of entrasthamatis activity.

Where [1] appears, read: given 60 minutes before antigen, read-out: depressing ratio.

Turning to `Cc1ccc2c(c1)C(SCCN(C)C)c1ccccc1CO2` (stereo not drawn) [Compound 1, 2-methyl-11-[2-(dimethylamino)ethyl]thio-6,11-dihydrodibenz[b,e]oxepin], the MLD in the series with male dd-strain mice (ip) is >100 mg/kg. In addition, in the series with male dd-strain mice (po), the MLD is >300 mg/kg. The minimal effective dose in the series with PCA response was determined as 2.5 mg/kg. In the series on PCA response (Dose 1 mg/Kg PO, given 60 minutes before antigen, read-out: depressing ratio), the inhibition in vivo at 1 mg/kg came out at 49%. For the same molecule, in the series with PCA response (setting [1]), the inhibition in vivo at 2.5 mg/kg was 81%, the inhibition in vivo at 5 mg/kg was 100%, the inhibition in vivo at 10 mg/kg was 100% and the inhibition in vivo at 25 mg/kg was determined as 100%. In the series with PCA response (setting [1]), the inhibition in vivo at 50 mg/kg is 100% and the inhibition in vivo at 100 mg/kg is 100%.
As for `CCN(CC)CCSC1c2ccccc2COc2ccc(C)cc21` (stereo not drawn) [Compound 2, 2-methyl-11-[2-(diethylamino)ethyl]thio-6,11-dihydrodibenz[b,e]oxepin], the MLD in the series with male dd-strain mice (ip) was >100 mg/kg. The MLD in the series with male dd-strain mice (po) is >300 mg/kg. The minimal effective dose in the series on PCA response amounted to 10 mg/kg. Further, in the series on PCA response (setting [1]), the inhibition in vivo at 2.5 mg/kg was determined as 20%, the inhibition in vivo at 5 mg/kg came to 40%, the inhibition in vivo at 10 mg/kg was found to be 52% and the inhibition in vivo at 25 mg/kg was 100%. In the series on PCA response (setting [1]), the inhibition in vivo at 50 mg/kg came to 100% and the inhibition in vivo at 100 mg/kg was found to be 100%.
As for `CC(C)N(CCSC1c2ccccc2COc2ccc(F)cc21)C(C)C` (stereo not drawn) [Compound 10, 2-fluoro-11-[2-(diisopropylamino)ethyl]thio-6,11-dihydrodibenz[b,e]oxepin], the MLD in the series with male dd-strain mice (ip) was >100 mg/kg. The MLD in the series with male dd-strain mice (po) was >300 mg/kg. Further, in the series with PCA response, the minimal effective dose was 100 mg/kg. In the series with PCA response (setting [1]), the inhibition in vivo at 10 mg/kg was 0%, the inhibition in vivo at 25 mg/kg is 11%, the inhibition in vivo at 50 mg/kg was found to be 11% and the inhibition in vivo at 100 mg/kg came to 73%.
Regarding `CCN(CC)CCSC1c2ccccc2COc2ccc(F)cc21` (stereo not drawn) [Compound 6, 2-fluoro-11-[2-(diethylamino)ethyl]thio-6,11-dihydrodibenz[b,e]oxepin], the MLD with male dd-strain mice (ip) was >100 mg/kg. Also, in the series on male dd-strain mice (po), the MLD is >300 mg/kg. The minimal effective dose with PCA response was found to be 25 mg/kg. In the series on PCA response (setting [1]), the inhibition in vivo at 10 mg/kg worked out at 3%, the inhibition in vivo at 25 mg/kg was determined as 84%, the inhibition in vivo at 50 mg/kg came out at 100% and the inhibition in vivo at 100 mg/kg is 100%.
`CCc1ccc2c(c1)C(SCCN(CC)CC)c1ccccc1CO2` (stereo not drawn) [Compound 5, 2-ethyl-11-[2-(diethylamino)ethyl]thio-6,11-dihydrodibenz[b,e]oxepin] gave an MLD with male dd-strain mice (ip) of 100 mg/kg. The MLD with male dd-strain mice (po) was >300 mg/kg. Also, in the series on PCA response, the minimal effective dose stood at 10 mg/kg. In the series with PCA response (setting [1]), the inhibition in vivo at 5 mg/kg was 36%, the inhibition in vivo at 10 mg/kg was determined as 56%, the inhibition in vivo at 25 mg/kg amounted to 100% and the inhibition in vivo at 50 mg/kg turned out to be 100%. For the same molecule, the inhibition in vivo at 100 mg/kg in the series with PCA response (setting [1]) was 100%.
As for `CCN(CC)CCSC1c2ccccc2COc2c(C)cccc21` (stereo not drawn) [Compound 3, 4-methyl-11-[2-(diethylamino)ethyl]thio-6,11-dihydrodibenz[b,e]oxepin], the MLD in the series with male dd-strain mice (ip) was >100 mg/kg. In addition, the MLD in the series on male dd-strain mice (po) is >300 mg/kg. Moreover, in the series with PCA response, the minimal effective dose turned out to be 100 mg/kg. Moreover, in the series on PCA response (setting [1]), the inhibition in vivo at 50 mg/kg is 14% and the inhibition in vivo at 100 mg/kg was determined as 52%.
Turning to `CCc1ccc2c(c1)C(SCCN(C(C)C)C(C)C)c1ccccc1CO2` (stereo not drawn) [Compound 9, 2-ethyl-11-[2-(diisopropylamino)ethyl]thio-6,11-dihydrodibenz[b,e]oxepin], the MLD in the series with male dd-strain mice (ip) is >100 mg/kg. For the same molecule, the MLD in the series with male dd-strain mice (po) is >300 mg/kg. For the same molecule, the minimal effective dose in the series on PCA response is 25 mg/kg. In the series with PCA response (setting [1]), the inhibition in vivo at 10 mg/kg worked out at 22%, the inhibition in vivo at 25 mg/kg turned out to be 67%, the inhibition in vivo at 50 mg/kg stood at 100% and the inhibition in vivo at 100 mg/kg was determined as 100%.
`CCN(CC)CCSC1c2ccccc2COc2ccc(Cl)cc21` (stereo not drawn) [Compound 4, 2-chloro-11-[2-(diethylamino)ethyl]thio-6,11-dihydrodibenz[b,e]oxepin]: in the series on male dd-strain mice (ip), the MLD is >100 mg/kg. In the series with male dd-strain mice (po), the MLD was >300 mg/kg. Further, the minimal effective dose in the series with PCA response was determined as 50 mg/kg. Moreover, in the series with PCA response (setting [1]), the inhibition in vivo at 10 mg/kg is 10%, the inhibition in vivo at 25 mg/kg worked out at 46%, the inhibition in vivo at 50 mg/kg was determined as 100% and the inhibition in vivo at 100 mg/kg was 100%.
Take `CCc1ccc2c(c1)C(SCCN(C)C)c1ccccc1CO2` (stereo not drawn) [Compound 7, 2-ethyl-11-[2-(dimethylamino)ethyl]thio-6,11-dihydrodibenz[b,e]oxepin]: in the series on male dd-strain mice (ip), the MLD was >100 mg/kg. The MLD in the series with male dd-strain mice (po) was >300 mg/kg. Further, the minimal effective dose in the series on PCA response was 5 mg/kg. For the same molecule, in the series on PCA response (setting [1]), the inhibition in vivo at 2.5 mg/kg stood at 30%, the inhibition in vivo at 5 mg/kg turned out to be 81%, the inhibition in vivo at 10 mg/kg was 100% and the inhibition in vivo at 25 mg/kg was found to be 100%. In the series with PCA response (setting [1]), the inhibition in vivo at 50 mg/kg was 100% and the inhibition in vivo at 100 mg/kg is 100%.
For `Cc1ccc2c(c1)OCc1ccccc1C2SCCN(C)C` (stereo not drawn) [Compound 11, 3-methyl-11-[2-(dimethylamino)ethyl]thio-6,11-dihydrodibenz[b,e]oxepin], the MLD with male dd-strain mice (ip) was >100 mg/kg. Also, in the series on male dd-strain mice (po), the MLD was >300 mg/kg. In addition, the minimal effective dose with PCA response came out at 50 mg/kg. Also, in the series on PCA response (setting [1]), the inhibition in vivo at 10 mg/kg turned out to be 0%, the inhibition in vivo at 25 mg/kg is 28%, the inhibition in vivo at 50 mg/kg stood at 61% and the inhibition in vivo at 100 mg/kg was determined as 61%.
As for `CN(C)CCSC1c2ccccc2COc2ccc(F)cc21` (stereo not drawn) [Compound 8, 2-fluoro-11-[2-(dimethylamino)ethyl]thio-6,11-dihydrodibenz[b,e]oxepin], the MLD with male dd-strain mice (ip) is >100 mg/kg. The MLD with male dd-strain mice (po) is >300 mg/kg. For the same molecule, the minimal effective dose with PCA response worked out at 25 mg/kg. Also, in the series with PCA response (setting [1]), the inhibition in vivo at 5 mg/kg was 23%, the inhibition in vivo at 10 mg/kg worked out at 33%, the inhibition in vivo at 25 mg/kg is 100% and the inhibition in vivo at 50 mg/kg came to 100%. Further, the inhibition in vivo at 100 mg/kg in the series on PCA response (setting [1]) stood at 100%.
